How the values were obtained:
60 tumor cell lines = assay: NCI DTP Human Tumor Cell Line Screen (60 tumor cell lines, Sulforhodamine B assay); type: cell-based; conditions: 48 h exposure, five 10-fold dilutions
Excerpt: This example describes the in vitro screening of 60 tumor cell lines against the compounds of the invention: ptilomycalin A, isocrambescidin 800 trihydrochloride, triacetylcrambescidin 800 chloride, crambescidin 657 hydrochloride, crambescidin 800 trihydrochloride, triacetylisocrambescidin 800 chloride, and 13-epiptilomycalin A to determine anti-tumor activity.
The screening methods utilized the National Cancer Institute (NCI) DTP Human Tumor Cell Line Screen protocol as described by Monks et al., J. Nat'l. Cancer Inst. 83:757-766 (1991); and Boyd In “Cancer Drug Discovery and Development, Vol; 2; Drug Development; Preclinical Screening, Clinical Trial and Approval, Humana Press, 1997, pp 23-43. The origins and processing of the cell lines used are described in Alley et al., Cancer Res., 1988, 48:589-601; Shoemaker et al., Prog. Clin. Biol. Res., 1988, 276:265-286; and Stinson et al., Proc. Am. Assoc. Cancer Res., 1989, 30:613.
In brief, in the screen protocol, cell suspensions were diluted depending on cell type and the expected target cell density (approximately 5000-40,000 cells per well) into a 96 well microtiter plate. Inoculates were preincubated for 24h at 37 °C for stabilization. Dilutions at twice the intended test concentrations were added at time zero in 100 μL aliquots to the microtiter plate wells. Test compounds were evaluated at five 10-fold dilutions. Routine test concentrations have the highest well concentration at 10E-4M, but for the standard agents, the highest well concentration used depended on the agent used. Incubations lasted 48 hours in 5% CO2 atmosphere and 100% humidity. The cells were assayed by Sulforhodomine B assay as described by Rubenstein et al., JNCI, 1990, 82:1113-1118 and Skehan et al., JNCI, 1990, 82: 1107-1112. Optical densities were read with a plate reader and the data processed using a microcomputer into special concentration parameters.
NCI renamed the IC50 value, the concentration that causes 50% growth inhibition the “GI50” value to emphasize the correction for the cell count at time zero; thus GI50 is the concentration of test drug where 100×(T−T0)/(C−T0)=50 (Boyd et al., In Cytotoxic Anticancer Drugs: Models and Concepts for Drug Discovery and Development, Vieriote. et al., Eds., Kluwer Academic, Hingham, Mass., 1992, pp 11-34; and Monks et al., JNCI, 1991, 83, 757-766. The optical density of the test well after a 48 hr period of exposure to the test compound is “T”, the optical density at time zero is TO and the control optical density is “C.” The “50” is called the GI50PRCNT, a T/C-like parameter that can have values from +100 to −100. The GI50 also measures the growth inhibitory power of the test compound. The TGI is the concentration of test drug where 100×(T−T0)/(C−T0)=0. Thus, the TGI signifies a cytostatic effect. The LC50 which signifies a cytotoxic effect, is the concentration of the test compound where 100×(T−T0)/T0=−50. The control optical density is not used in the calculation of LC50.
These concentration parameters are interpolated values. The concentrations giving G150PRCNT values above and below the reference values (e.g. 50 for G150) are used to make interpolations on the concentration axis. […] For mean graph purposes, the value assumed for the G150 in such a case is the highest concentration tested (HICONC). […] In this case, the lowest concentration tested is used for the G150. Corresponding approximations are made for the TGI and for the LC50.
The results of the tumor cell screening are shown in the mean graphs of 56-62. […]

L1210 = conditions: cited from earlier work
brain Na+, K+-ATPase = conditions: read-out: inhibition of brain Na+, K+-ATPase (IC50); cited from earlier work
P388 = conditions: cited from earlier work
[1] = target: T1, Ca2+-ATPase from skeletal sarcoplasmic reticulum (Homo sapiens, UniProt O14983); conditions: read-out: inhibition of Ca2+-ATPase from skeletal sarcoplasmic reticulum (IC50); cited from earlier work
T1 construct: from tissue; host or cells: skeletal muscle sarcoplasmic reticulum

[2] = system: Herpes simplex virus, type 1 (HSV-1); conditions: at a concentration of 0.2 μg/mL; cited from earlier work
Candida albicans = conditions: cited from earlier work

T1 sequence (O14983 whole entry): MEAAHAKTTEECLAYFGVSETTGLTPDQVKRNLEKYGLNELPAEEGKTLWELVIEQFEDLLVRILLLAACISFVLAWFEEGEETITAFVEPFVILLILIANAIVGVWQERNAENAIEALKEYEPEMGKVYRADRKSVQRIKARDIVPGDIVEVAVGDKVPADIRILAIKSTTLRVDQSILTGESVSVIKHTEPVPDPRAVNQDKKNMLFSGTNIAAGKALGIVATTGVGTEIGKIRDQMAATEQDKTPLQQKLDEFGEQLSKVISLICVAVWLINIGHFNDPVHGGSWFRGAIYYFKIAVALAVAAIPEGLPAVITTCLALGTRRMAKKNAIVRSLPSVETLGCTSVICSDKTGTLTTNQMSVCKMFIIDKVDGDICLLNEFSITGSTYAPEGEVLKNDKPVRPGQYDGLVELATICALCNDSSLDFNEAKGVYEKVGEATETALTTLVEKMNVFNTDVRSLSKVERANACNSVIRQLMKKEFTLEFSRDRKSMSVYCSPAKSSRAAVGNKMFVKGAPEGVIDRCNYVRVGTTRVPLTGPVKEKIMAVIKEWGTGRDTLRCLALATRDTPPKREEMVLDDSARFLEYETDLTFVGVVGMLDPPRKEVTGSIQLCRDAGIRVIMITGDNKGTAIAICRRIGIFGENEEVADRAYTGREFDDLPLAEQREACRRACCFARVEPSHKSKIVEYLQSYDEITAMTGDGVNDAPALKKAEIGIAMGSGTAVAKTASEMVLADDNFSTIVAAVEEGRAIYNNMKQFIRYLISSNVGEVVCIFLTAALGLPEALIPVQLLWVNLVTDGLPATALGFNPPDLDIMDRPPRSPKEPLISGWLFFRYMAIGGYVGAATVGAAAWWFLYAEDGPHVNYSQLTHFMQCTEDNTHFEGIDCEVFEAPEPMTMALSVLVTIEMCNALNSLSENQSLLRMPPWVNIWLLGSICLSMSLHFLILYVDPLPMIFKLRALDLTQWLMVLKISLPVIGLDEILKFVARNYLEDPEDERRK

Compound | effect on tumor cell lines in the NCI screen (mean graphs of GI50, TGI, LC50; summary in words) (60 tumor cell lines) | also measured
13,14,15-Isocrambescidin 800 Trihydrochloride | lesser effect | cytotoxicity to L-1210 cells relative to other crambescidins (L1210; L-1210 cells, in words): less cytotoxic to L-1210 cells than other crambescidins
13-epiptilomycalin A | certain cancer cell lines are sensitive | 
CCC1C=CCCC2(CC3CCC4C(C(=O)OCCCCCCCCCCCCCCCC(=O)N(CCCN)CCCCN)C5(CCCC(C)O5)NC(=N2)N34)O1 (centres unmarked) [Ptilomycalin A] | certain cancer cell lines are sensitive | IC50 (brain Na+, K+-ATPase): 2 µM; cytotoxicity against P388 (IC50) (P388): 0.1 µg/mL; IC50 [1]: 10 µM; antiviral activity against Herpes simplex virus, type 1 (HSV-1) [2]: considerable antiviral activity; antifungal activity against Candida albicans (MIC) (Candida albicans): 0.8 µg/mL; cytotoxicity against L1210 (IC50) (L1210; L1210): 0.4 µg/mL
CC[C@H]1C=CCC[C@@]2(C[C@@H]3CC[C@@H]4[C@H](C(=O)OCCCCCCCCCCCCCCCC(=O)N(CCCN)C[C@@H](O)CCN)[C@]5(CCC[C@@H](C)O5)NC(=N2)N34)O1.Cl.Cl.Cl [crambescidin 800 trihydrochloride, Crambescidin 800 Trihydrochloride] | certain cancer cell lines are sensitive | 
Peracetyl-13,14,15-Isocrambescidin 800 Hydrochloride [triacetylisocrambescidin 800 chloride] | lesser effect | 
Peracetylcrambescidin 800 [triacetylcrambescidin 800 chloride] | certain cancer cell lines are sensitive | 
crambescidin 657 hydrochloride | certain cancer cell lines are sensitive | 
